Measurements from patent publication US6936585B2, “Corticotropin releasing factor 2 receptor agonists” (priority 2002, dated 2005).
Read-outs that look alike come from different tables or passages of the source. Peptide text beside a SMILES is read from it.

Experiments:
CRF2R = target: T1, CRF2R (Homo sapiens, UniProt Q13324); assay: CRF2R agonist activation (EC50 / Emax), called comparative CRF binding; type: cell-based; settings: for Emax: read-out: CRF2R Emax
T1 sequence (Q13324 1-411): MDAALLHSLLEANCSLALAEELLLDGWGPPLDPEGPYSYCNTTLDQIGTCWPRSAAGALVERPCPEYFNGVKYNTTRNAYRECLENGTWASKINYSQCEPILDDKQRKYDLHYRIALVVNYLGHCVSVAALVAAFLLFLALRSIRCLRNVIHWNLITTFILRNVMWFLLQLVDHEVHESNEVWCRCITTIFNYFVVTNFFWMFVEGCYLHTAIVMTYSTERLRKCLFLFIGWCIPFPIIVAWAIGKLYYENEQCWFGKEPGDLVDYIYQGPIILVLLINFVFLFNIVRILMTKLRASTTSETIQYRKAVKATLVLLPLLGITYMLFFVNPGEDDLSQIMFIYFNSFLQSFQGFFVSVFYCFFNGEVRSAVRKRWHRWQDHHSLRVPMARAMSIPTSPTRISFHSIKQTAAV
Outline: (§1)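 Agonism at each human CRF receptor subtype is inferred from increased cAMP relative to vehicle, using cells expressing that subtype and either lysate cAMP measurement or a cAMP response element reporter.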

CRF1R = target: T2, CRF1R (Homo sapiens, UniProt P34998); assay: CRF1R agonist activation (EC50 / Emax), called comparative CRF binding; type: cell-based; settings: for Emax: read-out: CRF1R Emax
T2 sequence (P34998 24-415): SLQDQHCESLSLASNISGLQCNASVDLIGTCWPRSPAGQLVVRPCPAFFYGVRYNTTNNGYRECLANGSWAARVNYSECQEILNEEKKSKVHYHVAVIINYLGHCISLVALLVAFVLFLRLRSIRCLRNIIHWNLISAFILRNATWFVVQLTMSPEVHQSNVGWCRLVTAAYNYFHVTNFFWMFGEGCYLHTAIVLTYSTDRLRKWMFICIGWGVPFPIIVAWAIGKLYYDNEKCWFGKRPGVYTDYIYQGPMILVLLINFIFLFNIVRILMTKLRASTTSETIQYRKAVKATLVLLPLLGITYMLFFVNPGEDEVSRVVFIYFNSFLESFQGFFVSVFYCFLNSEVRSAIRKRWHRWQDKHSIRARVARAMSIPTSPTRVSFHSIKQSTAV
Outline: as §1

For `CC[C@H](C)[C@H](N)C(=O)N[C@H](C(=O)N[C@@H](CC(C)C)C(=O)N[C@@H](CO)C(=O)N[C@@H](CC(C)C)C(=O)N[C@@H](CC(=O)O)C(=O)N[C@H](C(=O)N1CCC[C@H]1C(=O)N[C@H](C(=O)NCC(=O)N[C@@H](CC(C)C)C(=O)N[C@@H](CC(C)C)C(=O)N[C@@H](CCC(N)=O)C(=O)N[C@H](C(=O)N[C@@H](CC(C)C)C(=O)N[C@@H](CC(C)C)C(=O)N[C@@H](CCC(=O)O)C(=O)N[C@@H](CCC(N)=O)C(=O)N[C@@H](C)C(=O)N[C@@H](CCCNC(=N)N)C(=O)N[C@@H](Cc1c[nH]cn1)C(=O)N[C@@H](C)C(=O)N[C@@H](Cc1c[nH]cn1)C(=O)N[C@@H](C)C(=O)N[C@@H](Cc1c[nH]cn1)C(=O)N[C@@H](C)C(=O)N[C@@H](Cc1c[nH]cn1)C(=O)N[C@@H](C)C(=O)N[C@@H](Cc1c[nH]cn1)C(=O)N[C@@H](C)C(=O)N[C@@H](CCC(N)=O)C(=O)N[C@@H](C)C(=O)N[C@@H](Cc1c[nH]cn1)C(=O)N[C@H](C(=O)N[C@@H](CC(C)C)C(=O)N[C@@H](C)C(=O)N[C@@H](Cc1c[nH]cn1)C(=O)N[C@H](C(N)=O)C(C)C)[C@@H](C)CC)[C@@H](C)CC)[C@@H](C)CC)C(C)C)C(C)C` [compound 369] (H-IVLSLDVPIGLLQILLEQARHAHAHAHAHAQAHILAHV-NH2), the Emax (CRF2R) was 18% and the Emax (CRF1R) was 4%.
For `CC[C@H](C)[C@H](N)C(=O)N[C@H](C(=O)N[C@@H](CC(C)C)C(=O)N[C@@H](CO)C(=O)N[C@@H](CC(C)C)C(=O)N[C@@H](CC(=O)O)C(=O)N[C@H](C(=O)N[C@@H](CO)C(=O)N[C@H](C(=O)NCC(=O)N[C@@H](CC(C)C)C(=O)N[C@@H](CC(C)C)C(=O)N[C@@H](CCC(N)=O)C(=O)N[C@H](C(=O)N[C@@H](CC(C)C)C(=O)N[C@@H](CC(C)C)C(=O)N[C@@H](CCC(=O)O)C(=O)N[C@@H](CCC(N)=O)C(=O)N[C@@H](C)C(=O)N[C@@H](CCCNC(=N)N)C(=O)N[C@@H](C)C(=O)N[C@@H](CCCNC(=N)N)C(=O)N[C@@H](C)C(=O)N[C@@H](C)C(=O)N[C@@H](CCCNC(=N)N)C(=O)N[C@@H](CCC(=O)O)C(=O)N[C@@H](CCC(N)=O)C(=O)N[C@@H](C)C(=O)N[C@H](C(=O)N[C@H](C(=O)N[C@@H](CC(N)=O)C(=O)N[C@@H](C)C(=O)N[C@@H](CCCNC(=N)N)C(=O)N[C@H](C(=O)N[C@@H](CC(C)C)C(=O)N[C@@H](C)C(=O)N[C@@H](CCCNC(=N)N)C(=O)N[C@H](C(N)=O)C(C)C)[C@@H](C)CC)[C@@H](C)O)[C@@H](C)O)[C@@H](C)CC)[C@@H](C)CC)C(C)C)C(C)C` [compound 370] (H-IVLSLDVSIGLLQILLEQARARAAREQATTNARILARV-NH2; N-terminus assumed), the EC50 (CRF2R; read-out: CRF2R EC50) was 51 nM, the Emax (CRF2R) was 75% and the EC50 (CRF1R; read-out: CRF1R EC50) was ≥ 1000 nM. For the same compound, the Emax (CRF1R) was 33%.
`CC[C@H](C)[C@H](N)C(=O)N[C@H](C(=O)N[C@@H](CC(C)C)C(=O)N[C@@H](CO)C(=O)N[C@@H](CC(C)C)C(=O)N[C@@H](CC(=O)O)C(=O)N[C@H](C(=O)N1CCC[C@H]1C(=O)N[C@H](C(=O)N[C@@H](Cc1c[nH]cn1)C(=O)N[C@@H](CC(C)C)C(=O)N[C@@H](CC(C)C)C(=O)N[C@@H](CCC(N)=O)C(=O)N[C@H](C(=O)N[C@@H](CC(C)C)C(=O)N[C@@H](CC(C)C)C(=O)N[C@@H](CCC(=O)O)C(=O)N[C@@H](CCC(N)=O)C(=O)N[C@@H](C)C(=O)N[C@@H](CCCNC(=N)N)C(=O)N[C@@H](C)C(=O)N[C@@H](CCCNC(=N)N)C(=O)N[C@@H](C)C(=O)N[C@@H](C)C(=O)N[C@@H](CCCNC(=N)N)C(=O)N[C@@H](CCC(=O)O)C(=O)N[C@@H](CCC(N)=O)C(=O)N[C@@H](C)C(=O)N[C@H](C(=O)N[C@H](C(=O)N[C@@H](CC(N)=O)C(=O)N[C@@H](C)C(=O)N[C@@H](CCCNC(=N)N)C(=O)N[C@H](C(=O)N[C@@H](CC(C)C)C(=O)N[C@@H](C)C(=O)N[C@@H](CCCNC(=N)N)C(=O)N[C@H](C(N)=O)C(C)C)[C@@H](C)CC)[C@@H](C)O)[C@@H](C)O)[C@@H](C)CC)[C@@H](C)CC)C(C)C)C(C)C` [compound 371] (H-IVLSLDVPIHLLQILLEQARARAAREQATTNARILARV-NH2; N-terminus assumed) showed an Emax (CRF2R) of 97% and an Emax (CRF1R) of 22%.
For `CC[C@H](C)[C@H](NC(=O)[C@H](CCCNC(=N)N)NC(=O)[C@H](C)NC(=O)[C@H](CC(N)=O)NC(=O)[C@H](CCC(N)=O)NC(=O)[C@H](CCC(=O)O)NC(=O)[C@H](C)NC(=O)[C@H](CCCNC(=N)N)NC(=O)[C@H](CCC(=O)O)NC(=O)[C@H](CCCNC(=N)N)NC(=O)[C@H](CCC(N)=O)NC(=O)[C@H](CO)NC(=O)[C@H](CCC(N)=O)NC(=O)[C@@H](NC(=O)[C@H](CCCCN)NC(=O)[C@H](CCC(=O)O)NC(=O)[C@H](CC(C)C)NC(=O)[C@H](CCC(=O)O)NC(=O)[C@H](CC(C)C)NC(=O)[C@H](CC(C)C)NC(=O)[C@@H](NC(=O)[C@H](CCCNC(=N)N)NC(=O)[C@H](CC(C)C)NC(=O)[C@H](CC(C)C)NC(=O)[C@H](CC(C)C)NC(=O)[C@H](CC(C)C)NC(=O)[C@@H]1CCCN1C(=O)[C@@H](NC(=O)[C@H](CC(=O)O)NC(=O)[C@@H](NC(=O)[C@H](CO)NC(=O)[C@H](CC(C)C)NC(=O)[C@H](CO)NC(=O)[C@@H]1CCCN1C(=O)[C@H](CC(N)=O)NC(=O)[C@@H](N)CC(=O)O)[C@@H](C)CC)C(C)C)[C@@H](C)O)[C@@H](C)O)C(=O)N[C@@H](Cc1ccccc1)C(=O)N[C@@H](C)C(=O)N[C@@H](CCCNC(=N)N)C(=O)N[C@H](C(N)=O)C(C)C` [compound 384] (H-DNPSLSIDVPLLLLRTLLELEKTQSQRERAEQNARIFARV-NH2; N-terminus assumed), the Emax (CRF2R) was 97.3% and the Emax (CRF1R) was 70.3%.
With `CC[C@H](C)[C@H](NC(=O)[C@H](CCCNC(=N)N)NC(=O)[C@H](C)NC(=O)[C@H](CC(N)=O)NC(=O)[C@H](CCC(N)=O)NC(=O)[C@H](CCC(=O)O)NC(=O)[C@H](C)NC(=O)[C@H](CCCNC(=N)N)NC(=O)[C@H](CCC(=O)O)NC(=O)[C@H](CCCNC(=N)N)NC(=O)[C@H](CCC(N)=O)NC(=O)[C@H](CO)NC(=O)[C@H](CCC(N)=O)NC(=O)[C@@H](NC(=O)[C@H](CCCCN)NC(=O)[C@H](CCC(=O)O)NC(=O)[C@H](CC(C)C)NC(=O)[C@H](CCC(=O)O)NC(=O)[C@H](CC(C)C)NC(=O)[C@H](CC(C)C)NC(=O)[C@@H](NC(=O)[C@H](CCCNC(=N)N)NC(=O)[C@H](CC(C)C)NC(=O)[C@H](CC(C)C)NC(=O)[C@H](Cc1ccccc1)NC(=O)[C@H](CC(C)C)NC(=O)[C@@H]1CCCN1C(=O)[C@@H](NC(=O)[C@H](CC(=O)O)NC(=O)[C@@H](NC(=O)[C@H](CO)NC(=O)[C@H](CC(C)C)NC(=O)[C@H](CO)NC(=O)[C@@H]1CCCN1C(=O)[C@H](CC(N)=O)NC(=O)[C@@H](N)CC(=O)O)[C@@H](C)CC)C(C)C)[C@@H](C)O)[C@@H](C)O)C(=O)N[C@@H](Cc1ccccc1)C(=O)N[C@@H](C)C(=O)N[C@@H](CCCNC(=N)N)C(=O)N[C@H](C(N)=O)C(C)C` [compound 385] (H-DNPSLSIDVPLFLLRTLLELEKTQSQRERAEQNARIFARV-NH2; N-terminus assumed) the EC50 (CRF2R) was 10.3 nM, the Emax (CRF2R) was 100% and the EC50 (CRF1R) was ≥ 1000 nM. It also gave an Emax (CRF1R) of 46%.
For `CC[C@H](C)[C@H](NC(=O)[C@H](CCCNC(=N)N)NC(=O)[C@H](C)NC(=O)[C@H](CC(N)=O)NC(=O)[C@H](CCC(N)=O)NC(=O)[C@H](CCC(=O)O)NC(=O)[C@H](C)NC(=O)[C@H](CCCNC(=N)N)NC(=O)[C@H](CCC(=O)O)NC(=O)[C@H](CCCNC(=N)N)NC(=O)[C@H](CCC(N)=O)NC(=O)[C@H](CO)NC(=O)[C@H](CCC(N)=O)NC(=O)[C@@H](NC(=O)[C@H](CCCCN)NC(=O)[C@H](CCC(=O)O)NC(=O)[C@H](CC(C)C)NC(=O)[C@H](CCC(=O)O)NC(=O)[C@H](CC(C)C)NC(=O)[C@H](CC(C)C)NC(=O)[C@@H](NC(=O)[C@H](CCCNC(=N)N)NC(=O)[C@H](CC(C)C)NC(=O)[C@H](CC(C)C)NC(=O)[C@H](Cc1ccccc1)NC(=O)[C@H](Cc1ccccc1)NC(=O)[C@@H]1CCCN1C(=O)[C@@H](NC(=O)[C@H](CC(=O)O)NC(=O)[C@@H](NC(=O)[C@H](CO)NC(=O)[C@H](CC(C)C)NC(=O)[C@H](CO)NC(=O)[C@@H]1CCCN1C(=O)[C@H](CC(N)=O)NC(=O)[C@@H](N)CC(=O)O)[C@@H](C)CC)C(C)C)[C@@H](C)O)[C@@H](C)O)C(=O)N[C@@H](Cc1ccccc1)C(=O)N[C@@H](C)C(=O)N[C@@H](CCCNC(=N)N)C(=O)N[C@H](C(N)=O)C(C)C` [compound 386] (H-DNPSLSIDVPFFLLRTLLELEKTQSQRERAEQNARIFARV-NH2; N-terminus assumed), the EC50 (CRF2R; read-out: CRF2R EC50) was 8.7 nM, the Emax (CRF2R) was 96% and the EC50 (CRF1R; read-out: CRF1R EC50) was ≥ 1000 nM. The Emax (CRF1R) was 78.2%.
